One data set concerns BCD rats. To be noted: rat, in vivo.
In data set [1] the test system is beagles with blood clot defect (heparin). Nature of the data set: Beagle tooth extraction BCD model: coagulation time. The note with it: treated immediately after tooth extraction, n = 7. The data set is classed as in vivo.
The subject of data set [2] is hypertensive rats with blood clot defect (BCD). The data set is described as follows: Rat BCD model: immunofluorescent staining of CD73&Fak, Runx2, Alp. The data set is classed as in vivo. The note with it: BCgel vs Ctrl, n = 6.
The test system is the same in data set [3]. The data set is described as follows: Rat incisor extraction BCD model: coagulation time. The data set is classed as in vivo. The note with it: treated immediately after tooth extraction, n = 12.
The next data set relates to beagles. Nature of the data set: Beagle BCD model: overall toxicity incl. cardiotoxicity and organ H&E.
Data set [4] relates to beagles with blood clot defect (heparin). Further details: species or system beagle. The note with it: dog, in vivo.
For data set [5], the system named is hypertensive rats with blood clot defect (BCD). The data set is classed as in vivo, rat. To be noted: micro-CT.
The subject of the next data set is healthy SD rats. To be noted: subcutaneous implantation, n = 6.

As for (RADA)4GSVLGYIQIR [BCgel], in the data set on BCD rats, the “increase in bone mineral density (BMD)” value was determined as 39% and the “reduction in trabecular separation (Tb.Sp)” value turned out to be 50%. Also, the “reduction in coagulation time vs gelform (Ctrl)” value in data set [1] came out at 69%. In data set [2] (one-month post-treatment), the “increase in CD73+&Fak+ double positive cells” value was determined as 15 fold. For the same substance, the “increase in CD73+&Fak+ double positive cells” value in data set [2] (one-week post-treatment) was 31 fold. The “reduction in coagulation time compared to gelform” value in data set [3] is 55%. Also, the “immunotoxicity, hematotoxicity, hepatotoxicity, nephrotoxicity, cardiotoxicity” value in the data set on beagles (BCgel for two months, n = 4) is “did not result in any observed immunotoxicity”. Besides, the “physiological toxicity (hematotoxicity, hepatotoxicity, nephrotoxicity, cardiotoxicity)” value in the data set on beagles (five months after tooth extraction, n = 3) is on record as “no signs of physiological toxicity”. In addition, in data set [4], the “elevation in Tb.N compared to the Ctrl group” value was determined as 56%, the “enhancement in BMD compared to the Ctrl group” value was 105%, the “increase in BV/TV compared to the Ctrl group” value turned out to be 143% and the “reduction in Tb.Sp compared to the Ctrl group” value came out at 60%. Besides, the “osteogenic effects of mechanically unloaded BCgel” value in data set [5] (0.5% BCgel vs gelform (Ctrl), n = 3) is recorded as “negligible osteogenic effects”. Further, in data set [5] (1 week post-treatment, n = 6), the “decrease in Tb.Sp compared to the Ctrl group” value was 47%, the “increase in BMD compared to the Ctrl group” value is reported as 73% and the “increase in BV/TV compared to the Ctrl group” value is listed as 84%. In addition, in the data set on healthy SD rats, the hematological parameters result is given as “nor did they have any impact on hematological parameters” and the “hepatic or renal function” value was “neither BCgel nor gelform induced any hepatic or renal abnormalities”.

The values above are taken from paper PMC11779924 (Nature Communications, 2025).
